Data on nine test systems can be found in the supplement of paper PMC6045584.

± gives the standard deviation of the averaged measurements.

Compound in experiment [1]: C[C@@H](Oc1cc(-c2cnn(C3CCNCC3)c2)cnc1N)c1c(Cl)ccc(F)c1Cl
Briefly: surviving fraction relative to DMSO-only wells; higher = less growth inhibition. To be noted: exposure time: 5 days. The gist of the method:
(§1)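 Surviving fraction was calculated by normalising CellTiter-Glo luminescence to the median of DMSO-only wells. Tumour cell lines in log phase were seeded in 384-well plates at 250–500 cells per well, and 24 hours later were exposed continuously for five days to inhibitors at 0.5, 1, 5, 10, 50, 100, 500 and 1000 nM.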

Compound in experiment [2]: O=C(c1cc(Cc2n[nH]c(=O)c3ccccc23)ccc1F)N1CCN(C(=O)C2CC2)CC1 [OLAPARIB]
The experiment is described as above. To be noted: exposure time: 5 days. The method in brief: as §1

CAL120 BREAST: the surviving fraction in experiment [1] (0.5 nM) turned out to be 0.912 ± 0.011; in experiment [1] (5 nM), 0.908 ± 0.029; in experiment [1] (10 nM), 0.898 ± 0.02; in experiment [1] (100 nM), 0.935 ± 0.017; in experiment [1] (500 nM), 0.676 ± 0.091; in experiment [1] (1000 nM) it was 0.547 ± 0.013. The surviving fraction in experiment [2] (0.5 nM) came to 0.9857 ± 0.0086; in experiment [2] (1 nM), 0.998 ± 0.018; in experiment [2] (5 nM) it was 1 ± 0.023; in experiment [2] (10 nM) it was 0.973 ± 0.024; in experiment [2] (50 nM), 0.979 ± 0.01; in experiment [2] (100 nM) it was 0.942 ± 0.04. The surviving fraction in experiment [2] (500 nM) came out at 0.892 ± 0.013; in experiment [2] (1000 nM) it was 0.825 ± 0.043.

For KPD BONE, the surviving fraction stood at 0.886 ± 0.043 in experiment [1] (0.5 nM); 0.87 ± 0.013 in experiment [1] (1 nM); 0.974 ± 0.039 in experiment [1] (5 nM); 0.987 ± 0.083 in experiment [1] (50 nM); 0.518 ± 0.011 in experiment [1] (500 nM); 0.156 ± 0.012 in experiment [1] (1000 nM). In addition, the surviving fraction came out at 0.983 ± 0.011 in experiment [2] (0.5 nM); 0.946 ± 0.024 in experiment [2] (1 nM); 0.969 ± 0.024 in experiment [2] (5 nM); 0.995 ± 0.093 in experiment [2] (10 nM); 0.959 ± 0.059 in experiment [2] (50 nM); 0.965 ± 0.022 in experiment [2] (100 nM). Besides, the surviving fraction in experiment [2] (500 nM) was found to be 0.765 ± 0.007; in experiment [2] (1000 nM) it was 0.711 ± 0.033.

Take H23 LUNG: the surviving fraction was 0.9503 ± 0.0081 in experiment [1] (0.5 nM); 0.963 ± 0.034 in experiment [1] (5 nM); 0.9953 ± 0.0047 in experiment [1] (50 nM); 0.993 ± 0.023 in experiment [1] (100 nM); 0.926 ± 0.049 in experiment [1] (500 nM); 0.688 ± 0.019 in experiment [1] (1000 nM). Further, the surviving fraction in experiment [2] (0.5 nM) was 1.09 ± 0.03; in experiment [2] (1 nM), 1.07 ± 0.02; in experiment [2] (5 nM), 1.1 ± 0.022; in experiment [2] (10 nM), 1.064 ± 0.004; in experiment [2] (50 nM) it was 1.22 ± 0.03; in experiment [2] (100 nM), 1.13 ± 0.041. Further, the surviving fraction in experiment [2] (500 nM) stood at 1.14 ± 0.0042; in experiment [2] (1000 nM), 1.08 ± 0.02.

Consider SCC90 HEADNECK, for which the surviving fraction in experiment [1] (1 nM) is 0.913 ± 0.028; in experiment [1] (5 nM), 0.934 ± 0.045; in experiment [1] (50 nM) it was 1.12 ± 0.098; in experiment [1] (100 nM), 1.17 ± 0.13; in experiment [1] (500 nM) it was 0.717 ± 0.028; in experiment [2] (0.5 nM) it was 1.07 ± 0.066. Moreover, the surviving fraction in experiment [2] (1 nM) turned out to be 1.04 ± 0.093; in experiment [2] (5 nM), 1.06 ± 0.062; in experiment [2] (10 nM), 1.1 ± 0.063; in experiment [2] (50 nM) it was 0.994 ± 0.037; in experiment [2] (100 nM), 0.942 ± 0.14; in experiment [2] (500 nM), 0.968 ± 0.087. In addition, in experiment [2] (1000 nM), the surviving fraction came to 0.931 ± 0.091.

For SUM44 BREAST, the surviving fraction in experiment [1] (0.5 nM) worked out at 0.865 ± 0.038; in experiment [1] (1 nM) it was 0.874 ± 0.056; in experiment [1] (5 nM) it was 0.983 ± 0.021; in experiment [1] (10 nM) it was 0.935 ± 0.029; in experiment [1] (100 nM), 1.04 ± 0.026; in experiment [1] (500 nM) it was 0.892 ± 0.077. For the same test system, the surviving fraction is 0.798 ± 0.046 in experiment [1] (1000 nM); 0.903 ± 0.012 in experiment [2] (0.5 nM); 0.911 ± 0.059 in experiment [2] (1 nM); 0.924 ± 0.083 in experiment [2] (5 nM); 0.909 ± 0.071 in experiment [2] (10 nM); 0.97 ± 0.068 in experiment [2] (50 nM). The surviving fraction in experiment [2] (100 nM) is 0.958 ± 0.063; in experiment [2] (500 nM), 0.894 ± 0.066; in experiment [2] (1000 nM), 0.861 ± 0.022.

For NOS1 BONE, the surviving fraction was 0.889 ± 0.05 in experiment [1] (0.5 nM); 0.856 ± 0.046 in experiment [1] (1 nM); 0.929 ± 0.1 in experiment [1] (10 nM); 1.17 ± 0.06 in experiment [1] (50 nM); 0.988 ± 0.04 in experiment [1] (100 nM); 0.742 ± 0.055 in experiment [1] (500 nM). Besides, the surviving fraction in experiment [1] (1000 nM) was 0.401 ± 0.026; in experiment [2] (0.5 nM), 1.09 ± 0.13; in experiment [2] (1 nM), 0.985 ± 0.096; in experiment [2] (5 nM) it was 0.981 ± 0.063; in experiment [2] (10 nM), 0.999 ± 0.079; in experiment [2] (50 nM), 0.828 ± 0.062. Besides, the results for the surviving fraction in experiment [2] (100 nM), in experiment [2] (500 nM) and in experiment [2] (1000 nM) were 0.773 ± 0.049, 0.553 ± 0.065 and 0.521 ± 0.071, respectively.

In the case of NCIH441 LUNG, the surviving fraction came out at 0.999 ± 0.039 in experiment [1] (0.5 nM); 0.982 ± 0.03 in experiment [1] (1 nM); 0.956 ± 0.045 in experiment [1] (5 nM); 0.998 ± 0.068 in experiment [1] (10 nM); 0.996 ± 0.046 in experiment [1] (50 nM); 0.885 ± 0.026 in experiment [1] (100 nM). Also, the surviving fraction turned out to be 0.885 ± 0.11 in experiment [1] (500 nM); 0.652 ± 0.079 in experiment [1] (1000 nM); 1.02 ± 0.14 in experiment [2] (0.5 nM); 1.11 ± 0.052 in experiment [2] (1 nM); 0.998 ± 0.034 in experiment [2] (5 nM); 1.06 ± 0.068 in experiment [2] (10 nM). Moreover, the surviving fraction in experiment [2] (50 nM) turned out to be 1.02 ± 0.042; in experiment [2] (100 nM), 0.98 ± 0.037; in experiment [2] (500 nM) it was 0.98 ± 0.064; in experiment [2] (1000 nM) it was 1.01 ± 0.042.

Turning to SUM149 BREAST, the surviving fraction in experiment [1] (0.5 nM) came out at 0.897 ± 0.12; in experiment [1] (1 nM) it was 0.877 ± 0.094; in experiment [1] (10 nM), 0.86 ± 0.045; in experiment [1] (100 nM) it was 0.893 ± 0.1; in experiment [1] (500 nM), 0.73 ± 0.064; in experiment [1] (1000 nM), 0.415 ± 0.029. Also, the surviving fraction in experiment [2] (0.5 nM) stood at 0.951 ± 0.21; in experiment [2] (1 nM) it was 0.911 ± 0.082; in experiment [2] (5 nM), 0.927 ± 0.11; in experiment [2] (10 nM), 0.84 ± 0.01; in experiment [2] (50 nM) it was 0.722 ± 0.054; in experiment [2] (100 nM), 0.624 ± 0.059. For the same test system, the figures for the surviving fraction in experiment [2] (500 nM) and in experiment [2] (1000 nM) were 0.511 ± 0.084 and 0.336 ± 0.051, respectively.

For MFM223 BREAST, the surviving fraction was determined as 0.7 ± 0.052 in experiment [1] (0.5 nM); 0.747 ± 0.044 in experiment [1] (1 nM); 0.751 ± 0.042 in experiment [1] (10 nM); 1.05 ± 0.14 in experiment [1] (50 nM); 0.934 ± 0.019 in experiment [1] (100 nM); 0.985 ± 0.064 in experiment [1] (500 nM). The surviving fraction stood at 0.836 ± 0.096 in experiment [1] (1000 nM); 1.13 ± 0.02 in experiment [2] (0.5 nM); 1.14 ± 0.1 in experiment [2] (1 nM); 1.13 ± 0.041 in experiment [2] (5 nM); 1.09 ± 0.085 in experiment [2] (10 nM); 0.87 ± 0.029 in experiment [2] (50 nM). Further, the values for the surviving fraction in experiment [2] (100 nM), in experiment [2] (500 nM) and in experiment [2] (1000 nM) were 0.787 ± 0.037, 0.748 ± 0.052 and 0.712 ± 0.025, respectively.
